Laboratory results published in patent US20150366877A1, “METHODS OF TREATMENT OF HUMAN CYTOMEGALOVIRUS INFECTION AND DISEASES WITH BROMODOMAIN INHIBITORS” (Washington University, priority 2013, published 2015).
Where two headings read alike, the source gives them in different places.

Tests used:
[1] = tested on: HCMV clinical strain TR-GFP; assay: microbe, parasite or virus in culture; assay type: cell-based, Human cytomegalovirus; settings: Human betaherpesvirus 5, HFF
Protocol: (§1) Drug effects were calculated as a percentage of reduction in GFPU in the presence of each drug concentration comported to the GFPU determined in the absence of drug. The dose-response curves were calculated using the GraphPad Prism 6 (GraphPad Software, USA),
(§2) In these experiments, the inventors determined the IC50 and IC90 values of respective BET bromodomain inhibitors against HCMV infection using fluorescence reduction assay (FIG. 9; Table 3) s.

[2] = tested on: HCMV laboratory strain AD169-GFP; assay: microbe, parasite or virus in culture; assay type: cell-based, Human cytomegalovirus; settings: Human betaherpesvirus 5, AD169, HFF
Protocol: as §1, §2

HCMV [3] = assay: Administration to a patient infected with HCMV (HCMV titers); assay type: in vivo, Human cytomegalovirus
Protocol: A patient is infected with HCMV. A health practitioner administers an amount calculated to provide 1 μM of the bromodomain inhibitor GSK525762A by intraperitoneal injection. The patient's HCMV titers decrease.

HCMV [4] = assay: Anti-HCMV activity in cultured primary human fibroblasts; assay type: cell-based, Human cytomegalovirus
HCMV, strain AD169 = assay: TCID50 assay of viral progeny in culture media, AD169-infected HFFs; assay type: cell-based, Human cytomegalovirus; settings: for reduction of viral titer: 125 nM; for IC50: Human betaherpesvirus 5, AD169, 120 h
Protocol: In this experiment, the inventors used TCID50 assays to determine the amounts of infectious viral particle in culture supernatants release from HCMV-infected cells, HFFs were infected with HCMV, strain AD169, at an MOI of 3 in the presence of different concentrations of JQ1. Culture media was changed every 24 hours to maintain the concentration of JQ1. At 5 (FIG. 2A) and 6 (FIG. 2B) days post infection (DPI), infected culture media was collected and titers of viral progeny in media was determined by TCID50 assay as described by Perng et al., 2011. The detection limit is indicated by the dashed line. (FIG. 2)
HFFs were infected with HCMV, strain AD 169, at an MOI of 3 in the presence of JQ1 at the range of 0-2000 nM. Culture media was changed every 24 hours to maintain the concentration of JQ1. At 5 days post infection, viral titers were determined by TCID50. […] These calculated IC50 values are much lower than published values used in the treatment of cancer.

[5] = tested on: HCMV clinical strain Toledo; assay: TCID50 assay of culture supernatant (release of viral particles), Toledo; assay type: cell-based, Human cytomegalovirus; settings: Human betaherpesvirus 5, MOI 3, 5 dpi
Protocol: (§3) In these experiments, the inventors used TCID50 assays to quantify the IC50 of (+)-JQ-1 in both HCMV laboratory-adapted and clinical strains (FIG. 9; Table 5). HFFs were infected with laboratory strain. AD169-GFP or laboratory strains FIXGFP & Toledo at an MOI of 3 in the presence of (+)-JQ-1 at the range of 0-2,000 nM. Culture media were changed every 24 hrs to maintain the concentration of JQ1. At 5 dpi, viral titers were determined by TCID50.

[6] = tested on: HCMV clinical strain TR-GFP; assay type: cell-based, Human cytomegalovirus
[7] = tested on: HCMV late proteins (pp71, pp150 and pp28); assay: Immunoblot analysis of HCMV proteins in infected HFFs; assay type: cell-based, Human cytomegalovirus; settings: MOI 3, different concentrations, 24, 48 and 72 hours post infection
Protocol: The method is as described by Perng et al. 2011. HFFs were infected with HCMV, strain AD169, at an MOI of 3 in the presence of different concentrations of JQ1. Culture media was changed every 24 hours to maintain the concentration of JQ1. Cells were harvested at 24, 48 and 72 hours post infection, HCMV proteins, immediate-early protein (IE1), early protein (UL69), and late proteins (pp71, pp150 and pp28) were determined by immunoblot analysis. (FIG. 4)

HCMV AD169 strain = assay type: cell-based, Human cytomegalovirus
[8] = tested on: HCMV laboratory strain AD169-GFP; assay: TCID50 assay of culture supernatant (release of viral particles), AD169-GFP; assay type: cell-based, Human cytomegalovirus; settings: Human betaherpesvirus 5, AD169
Protocol: as §3

[9] = tested on: HCMV, strain AD169 infected human foreskin fibroblasts; assay: Phase-contrast/fluorescence microscopy of HCMV-infected HFF (cytomegaly morphology); assay type: cell-based, Human cytomegalovirus; settings: 500 nm
Protocol: In these experiments, human foreskin fibroblasts (HFF) were infected with HCMV, strain AD169, at a multiplicity of infection (MOI) of 3 in the presence or absence of JQ1 […]. Culture media was changed every 24 hours to maintain the concentration of JQ1. Infected cells were examined by phase-contrast or fluorescence microscopy at 72 or 96 hours post infection (hpi). “Cytomegalic” cells appear larger in size with a characteristic intranuclear, homogenous, eosinophilic inclusion which can occupy the entire nucleus of the cell.

[10] = tested on: fatty acid synthase (FASN) and solute carrier family 38 member 5 (SLC38A5); assay: RNA-seq differential expression of FASN and SLC38A5 in HCMV-infected HFF; assay type: cell-based, human; settings: 250 uM, MOI 3, 48 hpi
Protocol: HFF cells were mock-infected or HCMV infected with laboratory strain AD169-GFP at a MOI of 3. (FIG. 12A) HFF cells were infected with AD169-GFP at a MOI of 3 in the presence or absence of […] (+)-JQ-1. (FIG. 12B) Cells from both (A) and (B) were harvested at 48 hpi and the total RNA was extracted using a column-based RNA purification kit (Qiagen). RNA integrity was evaluated with a Nano-drop spectrometer (NanoDrop, Wilmington, Del.). Messenger RNA purification, fragmentation, construction of sequencing library and sequencing were performed. The differential expression profiles of two c-Myc inducible genes, fatty acid synthase (FASN) and solute carrier family 38 member 5 (SLC38A5), were determined using an EdgeR procedure.

[11] = tested on: HCMV clinical strain FIX-GFP; assay: TCID50 assay of culture supernatant (release of viral particles), FIX-GFP; assay type: cell-based, Human cytomegalovirus; settings: Human betaherpesvirus 5
Protocol: as §3

[12] = tested on: HCMV laboratory strain AD169-GFP; assay: Time of addition assay on HCMV replication (GFP units); assay type: cell-based, Human cytomegalovirus; settings: fixed concentration ~6.5×IC50, added at indicated hpi, GFP units after 7 days

Structure (SMILES): COc1cc2c(cc1-c1c(C)noc1C)ncc1[nH]c(=O)n(C(C)c3ccccn3)c12 (stereo in doubt) [I-BET151, 7-(3,5-Dimethyl-1,2-oxazol-4-yl)-8-methoxy-1-[(1R)-1-(2-pyridinyl)ethyl]-1,3-dihydro-2H-imidazo[4,5-c]quinolin-2-one]
- IC50 [1]: 110 nM
- IC90 [1]: 160 nM
- IC50 [2]: 160 nM
- IC90 [2]: 550 nM
- patient's HCMV titers (HCMV [3]; amount calculated to provide 0.5 μM, intraperitoneal injection): decrease
- Concentration to inhibit HCMV replication (HCMV [4]): 0.391 to 0.781 µM

Structure (SMILES): Cc1sc2c(c1C)C(c1ccc(Cl)cc1)=N[C@@H](CC(=O)OC(C)(C)C)c1nnc(C)n1-2 [(+)-JQ1, 4-(4-chlorophenyl)-2,3,9-trimethyl-1,1-dimethylethyl ester-6H-thieno[3,2-f][1,2,4]triazolo[4,3-}{1,4}diazepine-6S-acetic acid]
- reduction of viral titer (HCMV, strain AD169; 5 days post infection): approximately 1000 fold
- reduction of viral titer (HCMV, strain AD169; 6 days post infection): greater than 1000 fold
- viral titer (HCMV, strain AD169; 250 nM, 5 days post infection): further reduced the viral titer
- viral titer (HCMV, strain AD169; 250 nM, 6 days post infection): undetectable
- viral titer (HCMV, strain AD169; 500 nM, 5 days post infection): undetectable
- viral titer (HCMV, strain AD169; 500 nM, 6 days post infection): undetectable
- IC50 (HCMV, strain AD169; read-out: IC50 (50% viral replication inhibitory concentration), AD169, MOI 3, 5 days post infection, calculated using four parameters): 21.6 nM
- IC50 (HCMV, strain AD169; read-out: IC50 (50% viral replication inhibitory concentration), AD169, MOI 3, 5 days post infection, calculated using three parameters): 17.8 nM
- IC50 [1]: 39 nM
- IC90 [1]: 93 nM
- IC50 [2]: 77 nM
- IC90 [2]: 210 nM
- patient's HCMV titers (HCMV [3]; therapeutically effective amount, intraperitoneal injection): decrease
- IC50 [5]: 22 nM
- IC90 [5]: 37 nM
- production of infectious viral particles (EM analysis) [6]: blocks the production of infectious viral particles
- accumulation of HCMV late proteins [7]: modestly inhibits
- production of infectious viral particles (electron micrographs) (HCMV AD169 strain): blocks the production of infectious viral particles
- IC50 [8]: 18 nM
- IC90 [8]: 49 nM
- morphology of infected HFF cells ([9]; MOI 3, 72 hours post infection): lost the “cytomegalic” morphology and an accumulation of dead cells was present
- morphology of infected HFF cells ([9]; MOI 3, 96 hours post infection): lost the “cytomegalic” morphology and a greater accumulation of floating dead cells were present
- up-regulation of FASN and SLC38A5 by HCMV infection [10]: up-regulation is reversed
- IC50 [11]: 18 nM
- IC90 [11]: 31 nM
- effect of the time of addition on HCMV replication [12]: block HCMV infections regardless of times post infection

Structure (SMILES): CCOC(=O)Nc1cc(-c2ccc(C)c(NS(C)(=O)=O)c2)nn2c(C)nnc12 [Bromosporine, N-[6-(3-methanesulfonamido-4-methylphenyl)-3-methyl-[1,2,4]triazolo[4,3-b]pyridazin-8-yl]carbamate]
- IC50 [2]: 290 nM
- IC90 [2]: 640 nM

Structure (SMILES): Cc1sc2c(c1C)C(c1ccc(Cl)cc1)=N[C@@H](CC(N)=O)c1nnc(C)n1-2 [CPI-203, (S)-2-(4-(4-chlorophenyl)-2,3,9-trimethyl-6H-thieno [3,2-f][1,2,4]triazolo[4,3-a][1,4]diazepin-6-yl)acetamide]
- IC50 [2]: 40 nM
- IC90 [2]: 140 nM

Structure (SMILES): Nc1ccn(C[C@@H](CO)OCP(=O)(O)O)c(=O)n1 [Cidofovir]
- IC50 [2]: 150 nM
- IC90 [2]: 1080 nM

Structure (SMILES): Nc1nc(O)c2ncn(COC(CO)CO)c2n1 [Ganciclovir]
- IC50 [2]: 1780 nM
- IC90 [2]: 25000 nM

Structure (SMILES): CCNC(=O)C[C@@H]1N=C(c2ccc(Cl)cc2)c2cc(OC)ccc2-n2c(C)nnc21 [I-BET762, 2-[(4S)-6-(4-chlorophenyl)-8-methoxy-1-methyl-4H-[1,2,4]triazolo[4,3-a][1,4]benzodiazepine-4-yl]-N-ethylacetamide]
- patient's HCMV titers (HCMV [3]; amount calculated to provide 1 μM, intraperitoneal injection): decrease
- effect of the time of addition on HCMV replication [12]: block HCMV infections regardless of times post infection

Structure (SMILES): COc1cccc(N2CCN(C3=Nc4c(F)cccc4[C@H](CC(=O)O)N3c3cc(C(F)(F)F)ccc3OC)CC2)c1 [Letermovir]
- IC50 [2]: 4.1 nM
- IC90 [2]: 5.8 nM
- effect of the time of addition on HCMV replication [12]: cannot control the viral infection after 48 hours post-infection

Structure (SMILES): Cc1sc2c(c1C)C(c1ccc(Cl)cc1)=N[C@@H](CC(=O)Nc1ccc(O)cc1)c1nnc(C)n1-2 [OTX-015, (S)-2-[4-(4-chlorophenyl)-2,3,9-trimethyl-6H-thieno [3,2-f][1,2,4]triazolo-[4,3-a][1,4]diazepin-6-yl]-N-(4-hydroxyphenyl)acetamide]
- IC50 [1]: 29 nM
- IC90 [1]: 85 nM
- IC50 [2]: 69 nM
- IC90 [2]: 210 nM
- patient's HCMV titers (HCMV [3]; therapeutically effective amount, oral administration): decrease
- effect of the time of addition on HCMV replication [12]: block HCMV infections regardless of times post infection

Structure (SMILES): COc1ccccc1S(=O)(=O)Nc1ccc2c(c1)CN(C)C(=O)N2 [PFI-1, 2-Methoxy-N-(3-methyl-2-oxo-1,2,3,4-tetrahydro-6-quinazolinyl)benzenesulfonamide]
- IC50 [1]: 420 nM
- IC90 [1]: 1220 nM
- IC50 [2]: 790 nM
- IC90 [2]: 2560 nM

Structure (SMILES): COc1cc(OC)c2c(=O)[nH]c(-c3cc(C)c(OCCO)c(C)c3)nc2c1 [RVX-208, 2-[4-(2-hydroxyethoxy)-3,5-dimethyl-phenyl]-5,7-dimethoxy-3H-quinazolin-4-one]
- IC50 [1]: 3160 nM
- IC90 [1]: 6670 nM
- IC50 [2]: 7930 nM
- IC90 [2]: 31100 nM
- patient's HCMV titers (HCMV [3]; amount calculated to provide 19 μM, intraperitoneal injection): decrease
- Concentration to inhibit HCMV replication (HCMV [4]): 14.063 to 28.125 µM
